Source: patent publication US5254565A, “Quinoline derivatives, their production and use” (priority 1988, dated 1993)

Key:
plasma cholesterol = assay: Plasma cholesterol lowering activity in cholesterol fed rat; format: in vivo, rat (7-week old, male Sarague Dawley rats); settings: diet containing 0.0005% of test compound for 4 days; mean ± standard deviation; control 240 ± 85; *p < 0.05 (t test vs control group); Dose (mg/kg/day): 23 0.40 ± 0.03, 30 0.45 ± 0.02, 32 0.43 ± 0.04
Procedure: 2. Plasma cholesterol lowering activity in cholesterol fed rat.
1% Cholesterol diet (containing 0.5% of cholic acid and 5% of olive oil) was fed to 7-week old, male Sarague Dawley rats for 3 days. The rats were grouped by the plasma cholesterol level, and fed by the same diet containing 0.0005% of a test compound for 4 days. Blood was collected from rats during 8:30-10:00 am at the fed state, and the plasma cholesterol level was measured enzymatically. The amount of a test compound consumed by rats was calculated on the basis of the amount of the diet consumed by the rats.

[1] = molecular target: T1, Acyl-CoA : cholesterol acyltransferase (ACAT) (Rattus norvegicus, UniProt Q7TQM4); assay: Acyl-CoA : cholesterol acyltransferase (ACAT) inhibitory activity: production of labeled cholesterol ester from [1-^14 C] oleoyl-CoA and endogenous cholesterol; format: biochemical; settings: read-out: ACAT Inhibition Rate; for inhibition at 1 µM: 10^-6 M test compound; for inhibition at 0.01 µM: 10^-8 M test compound
T1 construct: from the mucosal microsome fraction of the small intestine of male, 6-week old Sprague-Dawley rats; from tissue; host or cells: mucosal microsome fraction of the small intestine of male 6-week old Sprague-Dawley rats, fasted for 20 hours
T1 sequence (Q7TQM4 1-524): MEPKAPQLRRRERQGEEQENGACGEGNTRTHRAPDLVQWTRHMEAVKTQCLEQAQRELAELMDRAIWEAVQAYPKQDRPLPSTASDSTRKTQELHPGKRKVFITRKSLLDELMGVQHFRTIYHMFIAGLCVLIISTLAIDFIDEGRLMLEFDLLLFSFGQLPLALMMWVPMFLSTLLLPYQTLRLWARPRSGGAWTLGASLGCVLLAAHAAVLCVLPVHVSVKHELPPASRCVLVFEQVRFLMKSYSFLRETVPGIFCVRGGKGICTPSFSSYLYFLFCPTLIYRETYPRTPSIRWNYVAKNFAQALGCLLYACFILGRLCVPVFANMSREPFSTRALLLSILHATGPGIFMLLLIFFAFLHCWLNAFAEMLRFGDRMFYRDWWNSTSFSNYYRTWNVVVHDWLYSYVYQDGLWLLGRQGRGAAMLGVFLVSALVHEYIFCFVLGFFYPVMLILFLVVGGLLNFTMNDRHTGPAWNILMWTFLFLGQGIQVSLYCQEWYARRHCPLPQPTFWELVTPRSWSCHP
Procedure: 1. Acyl-CoA : cholesterol acyltransferase (ACAT) inhibitory activity.
The enzyme ACAT was prepared by the method of Heider et al. described in Journal of Lipid Research, Vol. 24, page 1127 (1982), from the mucosal microsome fraction of the small intestine of male, 6-week old Sprague-Dawley rats which had been fasted for 20 hours.
ACAT activity was calculated by the method of Helgerud et al. described in Journal of Lipid Research, Vol. 22, page 271 (1981), namely, by measuring the amount of the labeled cholesterol ester produced from [1-^14 C] oleoyl-CoA and endogenous cholesterol.
Inhibition rates (%) of the production of the labeled cholesterol ester wherein 10^-6 M-10^-8 M of test compounds were added are shown as an index of ACAT inhibitory activity in Table 1.

| SMILES | inhibition at 1 µM [1] [%] | also measured |
| --- | --- | --- |
| O=C(Nc1ccc(F)cc1F)Nc1cnc2ccc(Cl)cc2c1-c1ccccc1Cl [Example 23, 6-Chloro-4-(2-chlorophenyl)-3-[3-(2,4-difluorophenyl)ureido]quinoline] | 98 | Plasma Cholesterol (plasma cholesterol): 126 ± 33 mg/dL; inhibition at 0.1 µM ([1]; 10^-7 M test compound): 94.1%; inhibition at 0.01 µM [1]: 34.3% |
| Cc1ccc2ncc(NC(=O)Nc3ccc(F)cc3F)c(-c3ccccc3Cl)c2c1 [Example 30, 4-(2-Chlorophenyl)-3-[3-(2,4-difluorophenyl)ureido]-6-methylquinoline] | 98.5 | Plasma Cholesterol (plasma cholesterol): 143 ± 21 mg/dL |
| Cc1cc(C)c2ncc(NC(=O)Nc3ccc(F)cc3F)c(-c3ccccc3Cl)c2c1 [Example 32, 4-(2-Chlorophenyl)-3-[3-(2,4-difluorophenyl)ureido]-6,8-dimethylquinoline] | 98.9 | Plasma Cholesterol (plasma cholesterol): 119 ± 46 mg/dL; inhibition at 0.01 µM [1]: 52.1% |
| COc1cc(NC(=O)Nc2cnc3c(C)cc(C)cc3c2-c2ccccc2Cl)cc(OC)c1OC [Example 64, 4-(2-chlorophenyl)-6,8-dimethyl-3-[3-(3,4,5-trimethoxyphenyl)ureido]-quinoline] | 69.7 | – |
| Cc1cc(C)c2ncc(N(Cc3cc(C(C)(C)C)c(O)c(C(C)(C)C)c3)C(=O)Nc3ccc(F)cc3F)c(-c3ccccc3Cl)c2c1 [Example 67, 3-[1-(3,5-Di-tert-butyl-4-hydroxybenzyl)-3-(2,4-difluorophenyl)ureido]-4-(2-chlorophenyl)-6,8-dimethylquinoline] | 90.1 | – |
| COc1ccc(-c2c(NC(=O)Nc3ccc(F)cc3F)cnc3ccc(Cl)cc23)c(OC)c1OC [Example 68, 6-Chloro-3-[3-(2,4-difluorophenyl)ureido]-4-(2,3,4-trimethoxyphenyl)quinoline] | 98 | – |
| COc1ccc(-c2c(NC(=O)Nc3ccc(F)cc3F)cnc3ccc(Cl)cc23)c(O)c1OC [Example 69, 6-Chloro-3-[3-(2,4-difluorophenyl)ureido]-4-(2-hydroxy-3,4-dimethoxyphenyl)quinoline] | 78.2 | – |
| Cc1cc(C)c2ncc(NC(=O)Nc3c(C)cccc3C)c(-c3ccccc3Cl)c2c1 [Example 70, 4-(2-Chlorophenyl)-6,8-dimethyl-3-[3-(2,6-dimethyl-phenyl)ureido]quinoline] | 97.9 | – |
| Cc1cc(C)c2ncc(NC(=O)Nc3c(C(C)C)cccc3C(C)C)c(-c3ccccc3Cl)c2c1 [Example 71, 4-(2-Chlorophenyl)-3-[3-(2,6-diisopropylphenyl)ureido]-6,8-dimethylquinoline] | 98 | – |
| Cc1cc(C)c2ncc(NC(=O)Nc3ccc([N+](=O)[O-])cc3)c(-c3ccccc3Cl)c2c1 [Example 72, 4-(2-Chlorophenyl)-3-[3-(4-nitrophenyl)ureido]-6,8-dimethylquinoline] | 97.3 | – |
| Cc1cc2ncc(NC(=O)Nc3ccc(F)cc3F)c(-c3ccccc3Cl)c2cc1C [Example 73, 4-(2-Chlorophenyl)-3-[3-(2,4-difluorophenyl)ureido]-6,7-dimethylquinoline] | 99.6 | – |
| Cc1cc2c(-c3ccccc3Cl)c(NC(=O)Nc3ccc(F)cc3F)cnc2c(C)c1C [Example 74, 4-(2-Chlorophenyl)-3-[3-(2,4-difluorophenyl)ureido]-6,7,8-trimethylquinoline] | 99.3 | – |
| O=C(Nc1ccc(F)cc1F)Nc1cnc2ccc(Cl)cc2c1-c1ccc(O)c(O)c1 [Example 75, 6-chloro-3-[3-(2,4-difluorophenylureido]-4-(3,4-dihydroxyphenyl)quinoline.1/2hydrate] | 61.2 | – |
| CC(=O)Oc1c(C)cc(NC(=O)Nc2cnc3c(C)cc(C)cc3c2-c2ccccc2Cl)cc1C [Example 77, 3-[3-(4-Acetoxy-3,5-dimethylphenyl)ureido]-4-(2-chlorophenyl)-6,8-dimethylquinoline] | 96.2 | – |
| CC(=O)Oc1c(C)cc(NC(=O)Nc2cnc3c(C)cc(C)cc3c2-c2ccccc2Cl)c(C)c1C [Example 78, 3-[3-(4-Acetoxy-2,3,5-trimethylphenyl)ureido]-4-(2-chlorophenyl)-6,8-dimethylquinoline] | 98.2 | – |
| Cc1cc(C)c2ncc(NC(=O)Nc3cc(C(C)C)c(O)c(C(C)C)c3)c(-c3ccccc3Cl)c2c1 [Example 79, 4-(2-chlorophenyl)-3-[3-(4-hydroxy-3,5-diisopropylphenyl)ureido]-6,8-dimethylquinoline] | 79.9 | – |
| Cc1cc(C)c2ncc(NC(=O)Nc3cc(C)c(O)c(C)c3)c(-c3ccccc3Cl)c2c1 [Example 80, 4-(2-Chlorophenyl)-3-[3-(4-hydroxy-3,5-dimethylphenyl)ureido]-6,8-dimethylquinoline] | 95.9 | – |
| Cc1cc(C)c2ncc(NC(=O)Nc3cc(C)c(O)c(C)c3C)c(-c3ccccc3Cl)c2c1 [Example 81, 4-(2-Chlorophenyl)-3-[3-(4-hydroxy-2,3,5-trimethylphenyl)ureido]-6,8-dimethylquinoline] | 97.9 | – |
| Cc1cccc2ncc(NC(=O)Nc3ccc(F)cc3F)c(-c3ccccc3Cl)c12 [Example 83, 4-(2-Chlorophenyl)-3-[3-(2,4-difluorophenyl)ureido]-5-methylquinoline] | 87.3 | – |
